From patent US7410975B2, “Small molecule toll-like receptor (TLR) antagonists” (Coley Pharmaceutical Group, Inc., priority 2003, dated 2008)
Where a name gives a salt, the structure may show the parent alone.

Target: T1, human TLR3 (hTLR3) (Homo sapiens, UniProt O15455)
T1 construct: expressed in transfected cells
T1 sequence (O15455 24-904): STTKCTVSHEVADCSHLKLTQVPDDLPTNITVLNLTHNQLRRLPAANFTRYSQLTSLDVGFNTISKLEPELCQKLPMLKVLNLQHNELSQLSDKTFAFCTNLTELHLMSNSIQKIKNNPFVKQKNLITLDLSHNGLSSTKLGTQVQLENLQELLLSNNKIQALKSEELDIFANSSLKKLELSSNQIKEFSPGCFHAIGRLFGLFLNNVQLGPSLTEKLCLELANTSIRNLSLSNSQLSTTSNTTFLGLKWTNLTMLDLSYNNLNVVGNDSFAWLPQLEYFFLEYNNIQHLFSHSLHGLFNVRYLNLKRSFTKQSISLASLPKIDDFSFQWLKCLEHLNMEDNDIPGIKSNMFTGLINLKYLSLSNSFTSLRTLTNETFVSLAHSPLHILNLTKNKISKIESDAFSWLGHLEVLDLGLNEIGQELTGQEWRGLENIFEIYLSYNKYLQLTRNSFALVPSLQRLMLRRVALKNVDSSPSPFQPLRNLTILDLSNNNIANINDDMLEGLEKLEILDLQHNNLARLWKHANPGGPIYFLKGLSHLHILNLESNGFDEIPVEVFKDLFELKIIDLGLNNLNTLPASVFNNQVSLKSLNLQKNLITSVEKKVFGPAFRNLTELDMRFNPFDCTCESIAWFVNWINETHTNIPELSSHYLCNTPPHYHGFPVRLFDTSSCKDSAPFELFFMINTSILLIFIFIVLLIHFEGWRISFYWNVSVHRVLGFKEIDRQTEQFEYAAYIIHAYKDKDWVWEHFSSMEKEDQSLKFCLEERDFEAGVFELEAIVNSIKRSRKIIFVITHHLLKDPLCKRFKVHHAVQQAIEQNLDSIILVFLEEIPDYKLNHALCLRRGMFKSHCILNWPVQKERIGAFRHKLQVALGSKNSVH
Test: Antagonist screen, hTLR3-NFκB-293 cells, NF-κB-luciferase reporter, with EC50 of poly(I:C)
Assay type: cell-based
Settings: compound at 0.5, 5, 50 μg/ml; EC50 concentration of poly(I:C); 16 h; NF-κB-luciferase
Experimental: The method is described in greater detail as follows. The cells for each individual cell clone (hTLR3-NFκB-293, hTLR7-NFκB-293, hTLR8-NFκB-293 and hTLR9-NFκB-293) were counted and seeded one day before the stimulation at 1.5×10^4 cells per well in 96-well cell culture plates. To become adherent the cells were incubated after seeding overnight at 37° C. in 5% CO2 humidified air.
The screen for each compound was performed at the same time for all of the receptors TLR3, TLR7, TLR8 and TLR9. Up to fifteen test compounds, each assayed in duplicate at each of three different final concentrations (0.5 μg/ml, 5 μg/ml, and 50 μg/ml), were used for 16 h cell stimulation on a single multiwell culture plate. A 4× final concentration master plate was created to prepare the different test compounds before they were added to the cells.
Controls were added as duplicates individually for each cell clone on the cell culture plate. Positive controls were used as follows (final concentrations): 50 μg/ml poly(I:C) for hTLR3-NFκB-293; 8 μM resiquimod (R848) for hTLR7-NFκB-293; 30 μM R848 for hTLR8-NFκB-293; and 2.5 μM CpG-ODN 2006 for hTLR9-NFκB-293. Media alone was used as negative control. After addition of controls and small molecules, the cell clones were additionally stimulated with the EC50 concentration of the appropriate receptor-specific ligand.
The mean value of wells H2 and H5 (each with cells and EC50 concentration of the appropriate receptor-specific ligand) divided by the mean of wells H3 and H6 (each with cells alone) yielded the baseline response (i.e., fold induction of luciferase activity) to EC50 concentration of the appropriate receptor-specific ligand.
After 16 h stimulation the supernatant was removed and the cells treated with lysis buffer and stored at −80° C. before measuring.
For each screen result a graphical documentation was performed.
The baseline result (measured with addition of the EC50 concentration of the receptor-specific ligand) for each cell culture plate was measured as described above. Antagonistic effects were measured by down regulation compared to the baseline. Antagonists were scored as follows: • 13: compounds for which there was clear down regulation at 0.5 μg/ml, 5 μg/ml, and 50 μg/ml; • 12: compounds for which there was clear down regulation at 5 μg/ml and 50 μg/ml; • 11: compounds for which there was clear down regulation only at 50 μg/ml; • —: compounds for which there was no clear down regulation even at 50 μg/ml. Agonists
Results were expressed as fold induction over baseline luciferase activity measured in the absence of poly(I:C). […] Additional screening was performed in like manner using additional small molecules selected from another library or specifically prepared for this purpose. Scoring is reported as above but as applied to TLR3.

**Q.** With `C=CCc1ccccc1OC1(c2ccccc2)OC(=O)c2ccccc21` (stereo not drawn) [compound 957] as the compound, how does the “hTLR3 (inhibitory effect, antagonist score)” value read?
**A.** 12 (compounds for which there was clear down regulation at 5 μg/ml and 50 μg/ml)

**Q.** How did the “hTLR3 (inhibitory effect, antagonist score)” value turn out when `NC(=O)c1cccc2c1-c1ccccc1C2` [compound 1132] was run?
**A.** 11 (compounds for which there was clear down regulation only at 50 μg/ml)

**Q.** With `CN1CCC2C(C1)c1ccccc1N2Cc1ccccc1` (stereo not drawn) [compound 455, Mebhydroline 1,5 naphtalenedisulfonate] as the compound, how does the “hTLR3 (inhibitory effect, antagonist score)” value read?
**A.** — (compounds for which there was no clear down regulation even at 50 μg/ml)

**Q.** With `CN(C)CCCN1c2ccccc2Sc2ccc(Cl)cc21.Cl` [compound 64, Chlorpromazinehydrochloride] as the compound, how does the “hTLR3 (inhibitory effect, antagonist score)” value read?
**A.** 11 (compounds for which there was clear down regulation only at 50 μg/ml)

**Q.** `CN1Cc2c(N)cccc2C(c2ccccc2)C1.O=C(O)/C=C\C(=O)O` (stereo not drawn) [compound 108, Nomifensine maleate] was tested. Which “hTLR3 (inhibitory effect, antagonist score)” value did it give?
**A.** — (compounds for which there was no clear down regulation even at 50 μg/ml)

**Q.** For `O=C(c1cccc2c1-c1ccccc1/C2=N\O)N1CCCCC1` [compound 1050], which “hTLR3 (inhibitory effect, antagonist score)” value is on record?
**A.** 12 (compounds for which there was clear down regulation at 5 μg/ml and 50 μg/ml)

**Q.** With `CS(=O)(=O)O.OC(CCN1CCCCC1)(c1ccccc1)c1ccccc1` [compound 799, Pridinolmethanesulfonate salt] as the compound, how does the “hTLR3 (inhibitory effect, antagonist score)” value read?
**A.** — (compounds for which there was no clear down regulation even at 50 μg/ml)

**Q.** Which “hTLR3 (inhibitory effect, antagonist score)” value does the source give for Flunarizinehydrochloride [compound 312] here?
**A.** 11 (compounds for which there was clear down regulation only at 50 μg/ml)

**Q.** With `OCc1cc2c(cn1)[nH]c1ccccc12` [compound 878, 3-hydroxymethyl-beta-carboline] as the compound, how does the “hTLR3 (inhibitory effect, antagonist score)” value read?
**A.** — (compounds for which there was no clear down regulation even at 50 μg/ml)

**Q.** `O=C(O)c1ccc(C2(c3ccc(C(=O)O)cc3)OC(=O)c3ccccc32)cc1` [compound 970] was tested. Which “hTLR3 (inhibitory effect, antagonist score)” value did it give?
**A.** — (compounds for which there was no clear down regulation even at 50 μg/ml)

**Q.** How did the “hTLR3 (inhibitory effect, antagonist score)” value turn out when `CNCCCN1c2ccccc2CCc2ccccc21.Cl` [compound 343, Desipraminehydrochloride] was run?
**A.** 11 (compounds for which there was clear down regulation only at 50 μg/ml)

**Q.** With `CCN(CC)CCCN(CC(=O)C1c2ccc(Cl)cc2NC(=O)c2ccccc21)C(=O)c1ccccc1` (stereo not drawn) [compound 1013] as the compound, how does the “hTLR3 (inhibitory effect, antagonist score)” value read?
**A.** — (compounds for which there was no clear down regulation even at 50 μg/ml)

**Q.** `Clc1ccccc1C(c1ccccc1)(c1ccccc1)n1ccnc1` [compound 267, Clotrimazole] was tested. Which “hTLR3 (inhibitory effect, antagonist score)” value did it give?
**A.** — (compounds for which there was no clear down regulation even at 50 μg/ml)

**Q.** `CN1CCN(C(c2ccccc2)c2ccccc2)CC1.Cl` [compound 510, Cyclizine hydrochloride] was tested. Which “hTLR3 (inhibitory effect, antagonist score)” value did it give?
**A.** — (compounds for which there was no clear down regulation even at 50 μg/ml)

**Q.** How did the “hTLR3 (inhibitory effect, antagonist score)” value turn out when “Trifluoperazinedihydrochloride [compound 313]” was run?
**A.** — (compounds for which there was no clear down regulation even at 50 μg/ml)

**Q.** How did the “hTLR3 (inhibitory effect, antagonist score)” value turn out when `Cc1cc(OC(=O)C2C3CCCCC32)c(C(C)C)cc1C1(c2cc(C(C)C)c(OC(=O)C3C4CCCCC43)cc2C)OC(=O)c2ccccc21` (stereo not drawn) [compound 974] was run?
**A.** 11 (compounds for which there was clear down regulation only at 50 μg/ml)

**Q.** With `CN(C)CCC=C1c2ccccc2CCc2ccccc21.Cl` [compound 74, Amitryptilinehydrochloride] as the compound, how does the “hTLR3 (inhibitory effect, antagonist score)” value read?
**A.** — (compounds for which there was no clear down regulation even at 50 μg/ml)

**Q.** `CCOCCOC(=O)c1cc([N+](=O)[O-])cc2c1-c1c(cc([N+](=O)[O-])cc1[N+](=O)[O-])C2=C(C#N)C#N` [compound 1241] was tested. Which “hTLR3 (inhibitory effect, antagonist score)” value did it give?
**A.** 11 (compounds for which there was clear down regulation only at 50 μg/ml)

**Q.** With `O=C1c2ccccc2C(=O)c2c1ccc1c(=O)n(C3CCCCC3)[nH]c21` [compound 1015] as the compound, how does the “hTLR3 (inhibitory effect, antagonist score)” value read?
**A.** — (compounds for which there was no clear down regulation even at 50 μg/ml)

**Q.** Which “hTLR3 (inhibitory effect, antagonist score)” value does the source give for `COC(=O)C1=CO[C@@H](C)[C@@H]2CN3CCc4c([nH]c5ccccc45)[C@@H]3C[C@H]12` [compound 593, Tetrahydroalstonine] here?
**A.** — (compounds for which there was no clear down regulation even at 50 μg/ml)

**Q.** How did the “hTLR3 (inhibitory effect, antagonist score)” value turn out when `CCOC(=O)Oc1c(OC)cc(C(=O)O[C@@H]2C[C@@H]3CN4CCc5c([nH]c6cc(OC)ccc56)[C@H]4C[C@@H]3[C@H](C(=O)OC)[C@H]2OC)cc1OC` [compound 564, Syrosingopine] was run?
**A.** 13 (compounds for which there was clear down regulation at 0.5 μg/ml, 5 μg/ml, and 50 μg/ml)

**Q.** For `CC[C@]12CCCN3CCc4c(n(c5ccccc45)C(=O)C1)[C@@H]32` [compound 607, Eburnamonine], which “hTLR3 (inhibitory effect, antagonist score)” value is on record?
**A.** — (compounds for which there was no clear down regulation even at 50 μg/ml)

**Q.** Which “hTLR3 (inhibitory effect, antagonist score)” value does the source give for `Cc1nccc2c1[nH]c1ccccc12` [compound 620, Harmane hydrochloride] here?
**A.** — (compounds for which there was no clear down regulation even at 50 μg/ml)

**Q.** With `COC(=O)c1cccc(C(O)(c2ccccc2)c2ccccc2)c1S(=O)(=O)C(C)(C)C` [compound 1187] as the compound, how does the “hTLR3 (inhibitory effect, antagonist score)” value read?
**A.** 12 (compounds for which there was clear down regulation at 5 μg/ml and 50 μg/ml)

**Q.** Which “hTLR3 (inhibitory effect, antagonist score)” value does the source give for `CCCCOC(=O)c1cc([N+](=O)[O-])cc2c1-c1cc(CO)c([NH+]([O-])O)cc1C2=C(C#N)C#N` (stereo not drawn) [compound 939] here?
**A.** 11 (compounds for which there was clear down regulation only at 50 μg/ml)

**Q.** For `COC(=O)c1cccc2c1-c1ccccc1/C2=N/O` [compound 904], which “hTLR3 (inhibitory effect, antagonist score)” value is on record?
**A.** 12 (compounds for which there was clear down regulation at 5 μg/ml and 50 μg/ml)

**Q.** `O=C1Nc2ccccc2Oc2ccc([N+](=O)[O-])cc21` [compound 1352] was tested. Which “hTLR3 (inhibitory effect, antagonist score)” value did it give?
**A.** — (compounds for which there was no clear down regulation even at 50 μg/ml)

**Q.** How did the “hTLR3 (inhibitory effect, antagonist score)” value turn out when “Prochlorperazinedimaleate [compound 399]” was run?
**A.** 12 (compounds for which there was clear down regulation at 5 μg/ml and 50 μg/ml)

**Q.** `COCCCNC(=O)c1ccc2c(c1N)C(=O)c1ccccc1C2=O` [compound 1337] was tested. Which “hTLR3 (inhibitory effect, antagonist score)” value did it give?
**A.** 11 (compounds for which there was clear down regulation only at 50 μg/ml)

**Q.** How did the “hTLR3 (inhibitory effect, antagonist score)” value turn out when `O=C(O)c1cccc2c1/C(=N/O)c1ccccc1-2` [compound 918] was run?
**A.** — (compounds for which there was no clear down regulation even at 50 μg/ml)

**Q.** How did the “hTLR3 (inhibitory effect, antagonist score)” value turn out when `COC(=O)[C@H]1[C@H]2C[C@@H]3c4[nH]c5cc(OC)ccc5c4CCN3C[C@H]2C[C@@H](OC(=O)c2cc(OC)c(OC)c(OC)c2)[C@@H]1OC` [compound 875, Reserpine] was run?
**A.** — (compounds for which there was no clear down regulation even at 50 μg/ml)

**Q.** Which “hTLR3 (inhibitory effect, antagonist score)” value does the source give for `CC1CCN(C(=O)c2cccc3c2-c2ccccc2C3=O)CC1` [compound 1243] here?
**A.** — (compounds for which there was no clear down regulation even at 50 μg/ml)

**Q.** `c1ccc2c(c1)[nH]c1cnccc12` [compound 470, norharman] was tested. Which “hTLR3 (inhibitory effect, antagonist score)” value did it give?
**A.** 11 (compounds for which there was clear down regulation only at 50 μg/ml)
